# Source: patent US9302999B2, “Substituted triazoles as herbicides” (E. I. DU PONT DE NEMOURS AND COMPANY, priority 2012, dated 2016)
# Read-outs that look alike come from different tables or passages of the source.
# Experiments:
# Format in all cases: in vivo
# [1] = system: barnyardgrass (Echinochloa crus-galli); assay: Test A pre-/postemergence: barnyardgrass; conditions: Echinochloa crus-galli, 240 h; for pest or weed control at 125 g/ha: 125 g ai/ha; for pest or weed control at 500 g/ha: 500 g ai/ha
# How it was run: (§1)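 Injury was scored visually on a 0 (no effect) to 100 (complete control) scale versus untreated controls roughly ten days after treatment in the greenhouse. Compounds, formulated in surfactant-containing non-phytotoxic solvent, went on as soil-directed preemergence spray or postemergence to one- to two-leaf plants 2–10 cm tall.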
# [2] = system: morningglory (Ipomoea spp.); assay: Test A pre-/postemergence: morningglory; conditions: Ipomoea, 240 h; for pest or weed control at 125 g/ha: 125 g ai/ha; for pest or weed control at 500 g/ha: 500 g ai/ha
# How it was run: as §1
# corn (Zea mays) = assay: Test A pre-/postemergence: corn; conditions: Zea mays, 240 h
# How it was run: as §1
# [3] = system: ryegrass, Italian (Italian ryegrass, Lolium multiflorum); assay: Test C pre-/postemergence: ryegrass, Italian
# How it was run: (§2)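 Preemergence on seeds in loam/sand, postemergence on 2–18 cm (1–4-leaf) plants in peat-based medium; compounds in non-phytotoxic solvent with surfactant. After 13–15 days in greenhouse, visual rating versus controls, 0 (no effect) to 100 (complete control).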
# [4] = system: winter wheat (Triticum aestivum); assay: Test C pre-/postemergence: winter wheat
# How it was run: as §2
# [5] = system: galium (catchweed bedstraw, Galium aparine); assay: Test C pre-/postemergence: galium
# How it was run: as §2
# [6] = system: large crabgrass (Digitaria sanguinalis); assay: Test C pre-/postemergence: large crabgrass
# How it was run: as §2
# [7] = system: johnsongrass (Sorghum halepense); assay: Test C pre-/postemergence: johnsongrass
# How it was run: as §2
# kochia (Kochia scoparia) = assay: Test C pre-/postemergence: kochia
# Source text: Seeds of plant species selected from blackgrass (Alopecurus myosuroides), bromegrass, downy (downy bromegrass, Bromus tectorum), foxtail, green (green foxtail, Setaria viridis), ryegrass, Italian (Italian ryegrass, Lolium multiflorum), winter wheat (Triticum aestivum), wild oat (Avena fatua), galium (catchweed bedstraw, Galium aparine), bermudagrass (Cynodon dactylon), surinam grass (Brachiaria decumbens), cocklebur (common cocklebur, Xanthium strumarium), corn (Zea mays), large crabgrass (Digitaria sanguinalis), woolly cupgrass (Eriochloa villosa), foxtail, giant (giant foxtail, Setaria faberii), goosegrass (Eleusine indica), johnsongrass (Sorghum halepense), kochia (Kochia scoparia), lambsquarters (Chenopodium album), morningglory (Ipomoea coccinea), nightshade (eastern black nightshade, Solanum ptycanthum), nutsedge, yellow (yellow nutsedge, Cyperus esculentus), pigweed (Amaranthus retroflexus), ragweed (common ragweed, Ambrosia elation), soybean (Glycine max), common (oilseed) sunflower (Helianthus annuus), Russian thistle (Salsola kali) and velvetleaf (Abutilon theophrasti) were planted into a blend of loam soil and sand and treated preemergence with test chemicals formulated in a non-phytotoxic solvent mixture which included a surfactant.
# At the same time, plants selected from these crop and weed species and also barley (winter barley, Hordeum vulgare), canarygrass (Phalaris minor), chickweed (common chickweed, Stellaria media) windgrass (Apera spica-venti) and deadnettle (henbit deadnettle, Lamium amplexicaule) were planted in pots containing Redi-Earth® planting medium (Scotts Company, 14111 Scottslawn Road, Marysville, Ohio 43041) comprising spaghnum peat moss, vermiculite, wetting agent and starter nutrients and treated with postemergence applications of test chemicals formulated in the same manner. Plants ranged in height from 2 to 18 cm (1- to 4-leaf stage) for postemergence treatments.
# Treated plants and controls were maintained in a greenhouse for 13 to 15 days, after which time all species were compared to controls and visually evaluated. Plant response ratings, summarized in Table C, are based on a scale of 0 to 100 where 0 is no effect and 100 is complete control. A dash (-) response means no test result.
# [8] = system: nutsedge, yellow (yellow nutsedge, Cyperus esculentus); assay: Test C pre-/postemergence: nutsedge, yellow
# How it was run: as §2
# [9] = system: pigweed (Amaranthus retroflexus); assay: Test C pre-/postemergence: pigweed
# How it was run: as §2
# [10] = Postemergence, 16 g ai/ha, scale 0 to 100, 0 no effect, 100 complete control
# [11] = Postemergence, 31 g ai/ha, scale 0 to 100 (0 no effect, 100 complete control)
# [12] = Postemergence, 62 g ai/ha, scale 0 to 100 (0 no effect, 100 complete control)
# [13] = Postemergence, 125 g ai/ha, scale 0 to 100, 0 no effect, 100 complete control
# [14] = Preemergence, 16 g ai/ha, scale 0 (no effect) to 100 (complete control)
# [15] = Preemergence, 31 g ai/ha, scale of 0 to 100, 0 is no effect, 100 is complete control
# [16] = Preemergence, 62 g ai/ha, scale of 0 to 100, 0 is no effect, 100 is complete control
# [17] = Preemergence, 125 g ai/ha, scale 0 to 100, 0 no effect, 100 complete control
structure (smiles),measurement,setting,value
"COc1nn(-c2ccc(C(F)(F)F)cc2)nc1Cc1ccnc(C(F)(F)F)c1 [Compound 15, 4-[[5-methoxy-2-[4-(trifluoromethyl)phenyl]-2H-1,2,3-triazol-4-yl]methyl]-2-(trifluoromethyl)pyridine]",pest or weed control at 125 g/ha,"[1]; post-emergence, Postemergence, 0 to 100 scale, 0 is no effect, 100 is complete control, read-out: Barnyardgrass plant response rating",90%
same,pest or weed control at 500 g/ha,"[1]; post-emergence, Postemergence, visual rating on 0 to 100 scale (0 no effect, 100 complete control), approximately ten days, read-out: Barnyardgrass plant response rating",90%
same,pest or weed control at 125 g/ha,"[1]; pre-emergence, Preemergence, 0 to 100 scale (0 no effect, 100 complete control), read-out: Plant response rating, Barnyardgrass",100%
same,pest or weed control at 500 g/ha,"[1]; pre-emergence, Preemergence, 0 to 100 scale, 0 is no effect, 100 is complete control, read-out: Plant response rating, Barnyardgrass",100%
same,pest or weed control at 125 g/ha,"[2]; post-emergence, Postemergence, 0 to 100 scale, 0 is no effect, 100 is complete control, read-out: Morningglory plant response rating",100%
same,pest or weed control at 500 g/ha,"[2]; post-emergence, Postemergence, visual rating on 0 to 100 scale (0 no effect, 100 complete control), approximately ten days, read-out: Morningglory plant response rating",100%
same,pest or weed control at 125 g/ha,"[2]; pre-emergence, Preemergence, 0 to 100 scale (0 no effect, 100 complete control), read-out: Plant response rating, Morningglory",60%
same,pest or weed control at 500 g/ha,"[2]; pre-emergence, Preemergence, 0 to 100 scale, 0 is no effect, 100 is complete control, read-out: Plant response rating, Morningglory",80%
same,plant injury at 125 g/ha,"corn (Zea mays); post-emergence, Postemergence, 125 g ai/ha, 0 to 100 scale, 0 is no effect, 100 is complete control, read-out: Corn plant response rating",30%
same,plant injury at 500 g/ha,"corn (Zea mays); post-emergence, Postemergence, 500 g ai/ha, visual rating on 0 to 100 scale (0 no effect, 100 complete control), approximately ten days, read-out: Corn plant response rating",50%
same,"Corn plant response rating (crop injury, 0 = no effect, 100 = complete kill) at 125 g/ha","corn (Zea mays); pre-emergence, Preemergence, 125 g ai/ha, 0 to 100 scale (0 no effect, 100 complete control)",20%
same,"Corn plant response rating (crop injury, 0 = no effect, 100 = complete kill) at 500 g/ha","corn (Zea mays); pre-emergence, Preemergence, 500 g ai/ha, 0 to 100 scale, 0 is no effect, 100 is complete control",50%
same,"Plant response rating, Ryegrass, Italian",[3]; [10],10
same,"Plant response rating, Ryegrass, Italian",[3]; [11],30
same,"Plant response rating, Ryegrass, Italian",[3]; [12],45
same,"Plant response rating, Ryegrass, Italian",[3]; [13],60
same,"Plant response rating, Ryegrass, Italian",[3]; [14],10
same,"Plant response rating, Ryegrass, Italian",[3]; [15],40
same,"Plant response rating, Ryegrass, Italian",[3]; [16],45
same,"Plant response rating, Ryegrass, Italian",[3]; [17],80
same,"Plant response rating, Wheat",[4]; [10],15
same,"Plant response rating, Wheat",[4]; [11],25
same,"Plant response rating, Wheat",[4]; [12],35
same,"Plant response rating, Wheat",[4]; [13],35
same,"Plant response rating, Wheat",[4]; [14],0
same,"Plant response rating, Wheat",[4]; [15],10
same,"Plant response rating, Wheat",[4]; [16],25
same,"Plant response rating, Wheat",[4]; [17],50
same,"Plant response rating, Galium",[5]; [10],50
same,"Plant response rating, Galium",[5]; [11],55
same,"Plant response rating, Galium",[5]; [12],55
same,"Plant response rating, Galium",[5]; [13],80
same,"Plant response rating, Galium",[5]; [14],50
same,"Plant response rating, Galium",[5]; [15],75
same,"Plant response rating, Galium",[5]; [16],95
same,"Plant response rating, Galium",[5]; [17],98
same,"Plant response rating, Crabgrass, Large",[6]; [10],5
same,"Plant response rating, Crabgrass, Large",[6]; [11],15
same,"Plant response rating, Crabgrass, Large",[6]; [12],45
same,"Plant response rating, Crabgrass, Large",[6]; [13],60
same,"Plant response rating, Crabgrass, Large",[6]; [14],98
same,"Plant response rating, Crabgrass, Large",[6]; [15],100
same,"Plant response rating, Crabgrass, Large",[6]; [16],100
same,"Plant response rating, Crabgrass, Large",[6]; [17],100
same,"Plant response rating, Johnsongrass",[7]; [10],0
same,"Plant response rating, Johnsongrass",[7]; [11],45
same,"Plant response rating, Johnsongrass",[7]; [12],60
same,"Plant response rating, Johnsongrass",[7]; [13],80
same,"Plant response rating, Johnsongrass",[7]; [14],15
same,"Plant response rating, Johnsongrass",[7]; [15],55
same,"Plant response rating, Johnsongrass",[7]; [16],85
same,"Plant response rating, Johnsongrass",[7]; [17],90
same,"Plant response rating, Kochia",kochia (Kochia scoparia); [10],90
same,"Plant response rating, Kochia",kochia (Kochia scoparia); [11],95
same,"Plant response rating, Kochia",kochia (Kochia scoparia); [12],95
same,"Plant response rating, Kochia",kochia (Kochia scoparia); [13],95
same,"Plant response rating, Kochia",kochia (Kochia scoparia); [14],0
same,"Plant response rating, Kochia",kochia (Kochia scoparia); [15],70
same,"Plant response rating, Kochia",kochia (Kochia scoparia); [16],70
same,"Plant response rating, Kochia",kochia (Kochia scoparia); [17],85
same,"Plant response rating, Nutsedge, Yellow",[8]; [10],0
same,"Plant response rating, Nutsedge, Yellow",[8]; [11],0
same,"Plant response rating, Nutsedge, Yellow",[8]; [12],0
same,"Plant response rating, Nutsedge, Yellow",[8]; [13],0
same,"Plant response rating, Nutsedge, Yellow",[8]; [14],0
same,"Plant response rating, Nutsedge, Yellow",[8]; [15],0
same,"Plant response rating, Nutsedge, Yellow",[8]; [16],0
same,"Plant response rating, Nutsedge, Yellow",[8]; [17],10
same,"Plant response rating, Pigweed",[9]; [10],5
same,"Plant response rating, Pigweed",[9]; [11],60
same,"Plant response rating, Pigweed",[9]; [12],70
same,"Plant response rating, Pigweed",[9]; [13],90
same,"Plant response rating, Pigweed",[9]; [14],98
same,"Plant response rating, Pigweed",[9]; [15],100
same,"Plant response rating, Pigweed",[9]; [16],100
same,"Plant response rating, Pigweed",[9]; [17],100
